# Reference: US8835644B2, “Broad spectrum benzothiophene-nitrothiazolide and other antimicrobials” (University of Virginia Patent Foundation, priority 2009, dated 2014)
# Where two headings read alike, the source gives them in different places.
# Experiments:
# E. coli = assay: MIC testing by broth dilution, E. coli plank; assay type: cell-based, Escherichia coli
# Description: (§1) A standard broth dilution protocol was used in 96 well microplates containing a standard dilution of the microorganism to be tested in 100 microliters of the appropriate medium. Appropriate medium: E. coli, LB medium; Staphylococcus strains, Trypticase Soy; and for H. pylori and C. jejuni, Brain Heart Infusion. The compounds to be tested were set at 32 μg/ml in 200 microliters in well one and then serially diluted to provide a range from 32 to 0.06. The wells were scored visually at 24 h. The well where there was no growth was recorded as the MIC. Clostridium difficile was tested by agar diffusion and disk diffusion (Kirby Bower) methods under anaerobic conditions on Wilkins Chalgrin agar. In these assays, zone of inhibited growth was measured and compared by relative ratio to the zone recorded for NTZ.
# (§2) Representative compounds of the invention were tested in a series of assays against a series of organisms as described above. […] The organisms tested include, C. difficile, H. pylori, C. jejuni, MRSA, S. epidermidis, and E. coli. S. epidermidis and E. coli were tested in the plank and biofilm assay. A disk diffusion assay was also used for C. difficile. Direct PFOR enzyme assays were also performed. All analogues and derivatives were not tested on every organism in every type of assay (the “-” in each table means that it was not tested).
# H. pylori = assay: MIC testing by broth dilution, H. pylori; assay type: cell-based, Helicobacter pylori
# Description: as §1, §2
# MRSA = assay: MIC testing by broth dilution, MRSA; assay type: cell-based, Staphylococcus aureus
# Description: as §1, §2
# C. jejuni = assay: MIC testing by broth dilution, C. jejuni; assay type: cell-based, Campylobacter jejuni
# Description: as §1, §2
# S. epidermidis = assay: MIC testing by broth dilution, S. epidermidis plank; assay type: cell-based, Staphylococcus epidermidis
# Description: as §1, §2
# [1] = planktonic, Thiophene analogues table, read-out: MIC E. coli Plank
# [2] = Thiophene analogues table, read-out: MIC H. pylori
# [3] = Thiophene analogues table, read-out: MIC MRSA
# [4] = Thiophene analogues table, read-out: MIC C. jejuni
# [5] = planktonic, Thiophene analogues table, read-out: MIC S. epidermidis Plank
# [6] = broth dilution, LB medium, 24 h, read-out: MIC (μM) E. coli Plank
# [7] = broth dilution, Brain Heart Infusion, 24 h, read-out: MIC (μM) H. pylori
# [8] = broth dilution, Trypticase Soy, 24 h, read-out: MIC (μM) MRSA
# [9] = broth dilution, Brain Heart Infusion, 24 h, read-out: MIC (μM) C. jejuni
# [10] = broth dilution, Trypticase Soy, 24 h, read-out: MIC (μM) S. epidermidis Plank
# [11] = planktonic, Furan analogues table, read-out: MIC E. coli Plank
# [12] = Furan analogues table, read-out: MIC H. pylori
# [13] = Furan analogues table, read-out: MIC MRSA
# [14] = Furan analogues table, read-out: MIC C. jejuni
# [15] = planktonic, Furan analogues table, read-out: MIC S. epidermidis Plank
SMILES,MIC (E. coli; [11]) [µM],MIC (H. pylori; [12]) [µM],MIC (MRSA; [13]) [µM],MIC (C. jejuni; [14]) [µM],MIC (S. epidermidis; [15]) [µM],MIC (E. coli; [6]) [µM],MIC (H. pylori; [7]) [µM],MIC (MRSA; [8]) [µM],MIC (C. jejuni; [9]) [µM],MIC (S. epidermidis; [10]) [µM],also measured
O=C(Nc1ncc([N+](=O)[O-])s1)c1sccc1Cl [VPC16a1009],–,–,–,–,–,–,–,–,–,–,MIC (E. coli; [1]): 110.5 µM; MIC (H. pylori; [2]): 5.2 µM; MIC (MRSA; [3]): 20.7 µM; MIC (C. jejuni; [4]): 20.7 µM; MIC (S. epidermidis; [5]): 55.2 µM
O=C(Cc1ccccc1)Nc1ncc([N+](=O)[O-])s1 [VPC16a1013],–,–,–,–,–,121.5,21.6,121.5,1.8,22.8,–
Cn1cc(C(=O)Nc2ncc([N+](=O)[O-])s2)c2ccccc21 [VPC16a1014],–,–,–,–,–,105.9,1.2,105.9,19.9,5.0,–
O=C(Nc1ncc([N+](=O)[O-])s1)c1ccncc1F [VPC16a1053],–,–,–,–,–,119.3,3.7,119.3,14.9,119.3,–
O=C(Nc1ncc([N+](=O)[O-])s1)c1ccc(F)cc1F [VPC16b1009],–,–,–,–,–,112.2,0.4,28.0,7.0,42.1,–
O=C(Nc1ncc([N+](=O)[O-])s1)c1c(F)cccc1F [VPC16b1010],–,–,–,–,–,112.2,0.7,28.0,14.0,28.0,–
O=C(Nc1ncc([N+](=O)[O-])s1)c1cc(F)c(F)cc1F [VPC16b1012],–,–,–,–,–,105.5,0.8,33.0,9.9,33.0,–
O=C(Nc1ncc([N+](=O)[O-])s1)c1cc(F)c(F)c(F)c1 [VPC16b1014],–,–,–,–,–,105.5,1.2,29.7,4.9,66.0,–
O=C(Nc1ncc([N+](=O)[O-])s1)c1ccc(F)c(F)c1 [VPC16b1019],–,–,–,–,–,84.1,1.8,10.5,5.3,28.0,–
Cn1c(C(=O)Nc2ncc([N+](=O)[O-])s2)cc2ccccc21 [VPC16b1028],–,–,–,–,–,105.9,1.2,105.9,39.7,105.9,–
O=C(Nc1ncc([N+](=O)[O-])s1)C1CC1c1ccccc1 (centres unmarked) [VPC16b1032],–,–,–,–,–,110.6,1.7,13.8,26.6,13.8,–
O=C(Nc1ncc([N+](=O)[O-])s1)c1ccc(-c2ccoc2)o1 [VPC16b1142],104.8,1.6,26.2,13.1,13.1,–,–,–,–,–,–
"O=C(Nc1ncc([N+](=O)[O-])s1)c1ccc(-c2cccs2)o1 [VPC16b1145, N-(5-Nitrothiazol-2-yl)-5-(thiophen-2-yl)furan-2-carboxamide]",–,–,–,–,–,–,–,–,–,–,"MIC (E. coli; Escherichia coli, planktonic, Furan analogues table, read-out: MIC E. coli Plank): 99.6 µM; MIC (H. pylori; Helicobacter pylori, Furan analogues table, read-out: MIC H. pylori): 1.9 µM; MIC (MRSA; Staphylococcus aureus, MRSA, Furan analogues table, read-out: MIC MRSA): 12.4 µM; MIC (C. jejuni; Campylobacter jejuni, Furan analogues table, read-out: MIC C. jejuni): 12.5 µM; MIC (S. epidermidis; Staphylococcus epidermidis, planktonic, Furan analogues table, read-out: MIC S. epidermidis Plank): 12.4 µM"
O=C(Nc1ncc([N+](=O)[O-])s1)c1ccc(-c2ccco2)s1 [VPC16b1148],–,–,–,–,–,–,–,–,–,–,MIC (E. coli; [1]): 99.6 µM; MIC (H. pylori; [2]): 7.8 µM; MIC (MRSA; [3]): 24.9 µM; MIC (C. jejuni; [4]): 12.4 µM; MIC (S. epidermidis; [5]): 12.4 µM
O=C(Nc1ncc([N+](=O)[O-])s1)c1ccc(-c2ccsc2)s1 [VPC16b1154],–,–,–,–,–,–,–,–,–,–,MIC (E. coli; [1]): 94.8 µM; MIC (H. pylori; [2]): 3.0 µM; MIC (MRSA; [3]): 94.8 µM; MIC (C. jejuni; [4]): 94.8 µM; MIC (S. epidermidis; [5]): 94.8 µM
Cc1cccc(-c2ccc(C(=O)Nc3ncc([N+](=O)[O-])s3)s2)c1 [VPC16b2011],–,–,–,–,–,–,–,–,–,–,MIC (E. coli; [1]): 92.6 µM; MIC (H. pylori; [2]): 2.2 µM; MIC (MRSA; [3]): 92.6 µM; MIC (C. jejuni; [4]): 92.6 µM; MIC (S. epidermidis; [5]): 92.6 µM
O=C(Nc1ncc([N+](=O)[O-])s1)c1ccc(-c2cccs2)s1 [VPC16b2021],–,–,–,–,–,–,–,–,–,–,MIC (E. coli; [1]): 94.8 µM; MIC (H. pylori; [2]): 3.0 µM; MIC (MRSA; [3]): 94.8 µM; MIC (C. jejuni; [4]): 94.8 µM; MIC (S. epidermidis; [5]): 94.8 µM
O=C(Nc1ncc([N+](=O)[O-])s1)c1ccc(-c2ccsc2)o1 [VPC16b2022],99.6,6.2,99.6,99.6,99.6,–,–,–,–,–,–
O=C(Nc1ncc([N+](=O)[O-])s1)c1ccc(-c2ccccc2)o1 [VPC16c1020],101.5,2.4,101.5,101.5,101.5,–,–,–,–,–,–
"O=C(Nc1ccccc1)Nc1ncc([N+](=O)[O-])s1 [VPC161223, 1-(5-Nitrothiazol-2-yl)-3-phenylurea]",–,–,–,–,–,–,–,–,–,–,"MIC (E. coli; Escherichia coli, 24 h, read-out: MIC (μM) E. coli Plank): 121 µM; MIC (H. pylori; Helicobacter pylori, 24 h, read-out: MIC (μM) H. pylori): 1.4 µM; MIC (MRSA; Staphylococcus aureus, MRSA, 24 h, read-out: MIC (μM) MRSA): 30.3 µM; MIC (C. jejuni; Campylobacter jejuni, 24 h, read-out: MIC (μM) C. jejuni): 30.3 µM; MIC (S. epidermidis; Staphylococcus epidermidis, 24 h, read-out: MIC (μM) S. epidermidis Plank): 30.3 µM"
O=C(Nc1nccs1)c1sc2cc(F)ccc2c1Cl [VPC161235],–,–,–,–,–,–,–,–,–,–,"MIC (E. coli; Escherichia coli, planktonic, Thiophene analogues table, read-out: MIC E. coli Plank): 102 µM; MIC (H. pylori; Helicobacter pylori, Thiophene analogues table, read-out: MIC H. pylori): 12.8 µM; MIC (MRSA; Staphylococcus aureus, MRSA, Thiophene analogues table, read-out: MIC MRSA): 102 µM; MIC (C. jejuni; Campylobacter jejuni, Thiophene analogues table, read-out: MIC C. jejuni): 102 µM; MIC (S. epidermidis; Staphylococcus epidermidis, planktonic, Thiophene analogues table, read-out: MIC S. epidermidis Plank): 102 µM"
O=C(C=Cc1ccc(C(F)(F)F)cc1)Nc1ncc([N+](=O)[O-])s1 [VPC161239],–,–,–,–,–,93.2,0.6,93.2,93.2,2.9,–
Cl.NCCOc1cc([N+](=O)[O-])ccc1C(=O)Nc1ncc([N+](=O)[O-])s1 [VPC161256],–,–,–,–,–,82.1,1.3,82.1,5.1,82.1,–

# Now from value to molecule, other results behind:
MIC (E. coli; [11]) [µM],MIC (H. pylori; [12]) [µM],MIC (MRSA; [13]) [µM],MIC (C. jejuni; [14]) [µM],MIC (S. epidermidis; [15]) [µM],SMILES,MIC (E. coli; [6]) [µM],MIC (H. pylori; [7]) [µM],MIC (MRSA; [8]) [µM],MIC (C. jejuni; [9]) [µM],MIC (S. epidermidis; [10]) [µM],also measured
97.2,3.8,12.1,24.3,12.1,Cc1ccccc1-c1ccc(C(=O)Nc2ncc([N+](=O)[O-])s2)o1 [VPC16a1103],–,–,–,–,–,–
96.0,1.5,24.0,24.0,12.0,O=C(Nc1ncc([N+](=O)[O-])s1)c1ccc(-c2cccc(F)c2)o1 [VPC16b1115],–,–,–,–,–,–
91.5,1.4,11.4,11.4,5.7,O=C(Nc1ncc([N+](=O)[O-])s1)c1ccc(-c2ccccc2Cl)o1 [VPC16b1118],–,–,–,–,–,–
91.5,1.1,91.5,22.9,91.5,O=C(Nc1ncc([N+](=O)[O-])s1)c1ccc(-c2cccc(Cl)c2)o1 [VPC16b1119],–,–,–,–,–,–
89.1,1.4,89.1,89.1,89.1,O=C(Nc1ncc([N+](=O)[O-])s1)c1ccc(-c2ccc3c(c2)OCO3)o1 [VPC16b1132],–,–,–,–,–,–
92.7,1.5,92.7,92.7,92.7,COc1ccc(-c2ccc(C(=O)Nc3ncc([N+](=O)[O-])s3)o2)cc1 [VPC16b1139],–,–,–,–,–,–
97.2,2.3,97.2,97.2,97.2,Cc1cccc(-c2ccc(C(=O)Nc3ncc([N+](=O)[O-])s3)o2)c1 [VPC16b2014],–,–,–,–,–,–
97.2,1.5,97.2,97.2,97.2,Cc1ccc(-c2ccc(C(=O)Nc3ncc([N+](=O)[O-])s3)o2)cc1 [VPC16b2019],–,–,–,–,–,–
